# Data reported in patent US8846110B2, “Polymeric systems for the delivery of anticancer drugs” (Rexahn Pharmaceuticals, Inc., priority 2009, dated 2014).
# pKd: −log10 of the molar value.
# How the values were obtained:
# reduced folate carrier = target: T1, reduced folate carrier (Homo sapiens, UniProt P41440); conditions: low affinity reduced folate carrier, cellular uptake; cited from earlier work
# T1 sequence (P41440 1-591): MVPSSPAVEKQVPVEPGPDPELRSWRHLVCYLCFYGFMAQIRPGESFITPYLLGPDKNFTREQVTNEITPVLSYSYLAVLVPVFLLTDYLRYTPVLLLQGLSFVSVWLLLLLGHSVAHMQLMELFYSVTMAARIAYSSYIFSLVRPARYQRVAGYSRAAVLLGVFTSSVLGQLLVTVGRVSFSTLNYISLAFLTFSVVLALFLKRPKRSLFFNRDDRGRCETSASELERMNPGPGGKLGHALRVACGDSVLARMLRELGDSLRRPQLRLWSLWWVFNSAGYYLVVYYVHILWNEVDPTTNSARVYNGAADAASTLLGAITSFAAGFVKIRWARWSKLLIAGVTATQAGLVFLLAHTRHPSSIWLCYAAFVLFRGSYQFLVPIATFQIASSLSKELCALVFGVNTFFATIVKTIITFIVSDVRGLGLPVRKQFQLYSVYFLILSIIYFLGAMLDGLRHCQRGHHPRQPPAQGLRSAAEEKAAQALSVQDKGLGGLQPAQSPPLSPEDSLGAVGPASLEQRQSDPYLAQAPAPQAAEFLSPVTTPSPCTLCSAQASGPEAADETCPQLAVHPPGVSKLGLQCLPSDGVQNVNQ
# [1] = target: glycosylphosphatidylinositol-linked folate receptor (FR); conditions: high affinity folate receptor; cited from earlier work
# HCT116 (colon) = experiment: In vitro cell proliferation (SRB) assay, HCT116; type: cell-based; conditions: Homo sapiens, HCT-116; drug equivalent; 96 hours incubation; SRB method
# Method: (§1) Cancer cell lines to determine the effect of polymer-drug conjugates were obtained from the following sources: Human MDA-MB-231 (breast), HCT116 (colon) and PANC-1 (pancreas), from the American Type Culture Collection (ATCC) (Manassas, Va.). UMRC2 (kidney) from United States National Cancer Institute (Bethesda, Md.). Cells were maintained in Dulbecco's modified Eagle's medium (“DMEM”, Invitrogen) supplemented with 10% FBS, P/S and 10 mM HEPES. All cells were incubated at 37° C. under humidified 5% CO2.
# (§2) The growth inhibition assay of polymer-drug conjugates against human cancer cell lines was performed using the Sulforhodamine B (“SRB”) method (Skehan et al., J. National Cancer Institute, 82: 1107-1112 (1990)). […] After 5 minutes agitation in 10 mM Tris solution, the absorbance of each well was measured at 530 nm using Benchmark Plus Microplate reader (Bio-Rad Laboratories, Hercules, Calif.). The absorbance value provides a direct measure of the number of live cells post-treatment with copolymer-drug conjugates.
# (§3) To translate the OD530 values into the number of live cells in each well, the OD530 values were compared to those on standard OD530—versus—cell number curves generated for each cell line. The percent survival was calculated using the formula: % Survival=live cell number [test]/live cell number [control]×100
# (§4) The IC50 values were calculated by non-linear regression analysis.
# Caki-1 = experiment: In vitro cell proliferation (SRB) assay, Caki-1; type: cell-based; conditions: Homo sapiens, drug equivalent, 96 hours incubation, SRB method
# MDA-MB-231 (breast) = experiment: In vitro cell proliferation (SRB) assay, MDA-MB-231; type: cell-based; conditions: Homo sapiens, drug equivalent, 96 hours incubation, SRB method
# Method: as §1, §2, §3, §4
# mucin-1 = mucin-1 (Homo sapiens, UniProt P15941); conditions: specific ligand of mucin-1; cited from earlier work
# Chain of mucin-1 (P15941 24-1255): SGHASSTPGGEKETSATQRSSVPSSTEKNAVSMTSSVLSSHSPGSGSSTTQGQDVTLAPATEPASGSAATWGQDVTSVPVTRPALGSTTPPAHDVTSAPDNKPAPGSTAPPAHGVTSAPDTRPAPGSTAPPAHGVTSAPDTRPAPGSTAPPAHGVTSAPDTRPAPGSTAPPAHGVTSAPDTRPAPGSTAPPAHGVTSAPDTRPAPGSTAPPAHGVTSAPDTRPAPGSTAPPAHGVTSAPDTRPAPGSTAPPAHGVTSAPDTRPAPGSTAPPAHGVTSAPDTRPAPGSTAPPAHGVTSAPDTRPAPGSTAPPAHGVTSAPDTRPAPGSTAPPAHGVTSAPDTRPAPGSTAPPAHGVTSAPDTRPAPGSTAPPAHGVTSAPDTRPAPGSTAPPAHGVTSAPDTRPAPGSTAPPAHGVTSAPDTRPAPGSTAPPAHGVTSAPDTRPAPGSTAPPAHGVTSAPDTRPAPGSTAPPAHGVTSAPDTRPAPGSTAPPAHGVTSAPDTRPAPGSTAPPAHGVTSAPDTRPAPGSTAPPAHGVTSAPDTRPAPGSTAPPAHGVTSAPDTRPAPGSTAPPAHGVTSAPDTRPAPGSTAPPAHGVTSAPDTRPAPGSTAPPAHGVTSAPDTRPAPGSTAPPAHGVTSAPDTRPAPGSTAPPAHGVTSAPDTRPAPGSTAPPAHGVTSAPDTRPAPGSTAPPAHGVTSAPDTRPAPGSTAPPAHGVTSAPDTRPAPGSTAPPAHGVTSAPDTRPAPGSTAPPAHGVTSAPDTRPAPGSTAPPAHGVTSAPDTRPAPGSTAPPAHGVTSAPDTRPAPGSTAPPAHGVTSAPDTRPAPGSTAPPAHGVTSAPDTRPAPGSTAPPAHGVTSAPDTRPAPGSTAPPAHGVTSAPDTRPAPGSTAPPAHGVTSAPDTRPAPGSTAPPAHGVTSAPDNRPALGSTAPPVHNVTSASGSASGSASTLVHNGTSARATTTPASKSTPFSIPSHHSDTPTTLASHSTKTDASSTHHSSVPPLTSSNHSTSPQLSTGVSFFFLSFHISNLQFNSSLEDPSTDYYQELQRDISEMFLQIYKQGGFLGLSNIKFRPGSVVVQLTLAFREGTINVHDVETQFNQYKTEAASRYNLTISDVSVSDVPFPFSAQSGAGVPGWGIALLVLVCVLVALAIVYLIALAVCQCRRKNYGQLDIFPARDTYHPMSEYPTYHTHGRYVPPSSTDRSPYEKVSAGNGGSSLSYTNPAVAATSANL
compound,measurement,setting,value
"Nc1nc2ncc(CNc3ccc(C(=O)N[C@@H](CCC(=O)O)C(=O)O)cc3)nc2c(=O)[nH]1 [folates, Folic acid]",Km,reduced folate carrier,~1 µM
same,pKd,[1],~10.00
"CC(=O)O[C@@]12CO[C@@H]1C[C@H](O)[C@@]1(C)C(=O)[C@H](O)C3=C(C)[C@@H](OC(=O)[C@H](O)[C@@H](NC(=O)OC(C)(C)C)c4ccccc4)C[C@@](O)([C@@H](OC(=O)c4ccccc4)[C@H]21)C3(C)C [Docetaxel, docetaxel]",IC50,HCT116 (colon),0.00058 µM
same,IC50,Caki-1,0.001 µM
same,IC50,MDA-MB-231 (breast),0.0015 µM
YCAREPPTRTFAYWG [EPPT1],pKd,mucin-1,4.70
